Structures can show the parent of a compound that is named as a salt.
Legend:
BMI1 = assay: Western blotting of BMI1 protein levels in GBM spheres; assay type: cell-based, human; settings: for BMI1 levels: GBM spheres, 72 hours, Western blotting
Description: Different GBM cells were treated with DMSO or different concentrations of test compounds for 72 hours. Cells were lysed in Cell Lysis Buffer (Cell Signaling, #9803) supplemented with Protease Inhibitor Cocktail (Sigma, #P8340), spun down for 30 minutes at 4° C., after which the supernatant was collected at every time point indicated. Western blotting analysis was performed on all samples as described above. BMI1 loss started at 6-12 hours, coinciding with an upper shift and hyper-phosphorylation of BMI1 at 12-24 hours and complete depletion at 72 hours.
GBM cells were treated with DMSO or different concentrations of the test compounds for 72 hours. Cells were lysed in Cell Lysis Buffer (Cell Signaling, #9803) supplemented with Protease Inhibitor Cocktail (Sigma, #P8340), sonicated briefly while on ice and spun down for 30 minutes at 4° C., after which the supernatant was collected. For each sample, 2 uL of lysate was mixed well into 198 uL de-ionized water. Next, 10 uL of this diluted sample was added to a well in a 96 well plate in quadruplets and mixed with Protein Assay Dye Reagent Concentrate (Bio-Rad, #500-0006) (which was diluted 1:5 with water). BSA standards of 25 ng, 50 ng, 100 ng, 200 ng and 250 ng were also used to the plate and mixed with the reagent. The plate was read in a plate reader at 600 nm and samples were calibrated to the standards to determine the concentration of protein. Using the NuPAGE system (Invitrogen), 25 ug of protein was mixed with NuPAGE LDS 4× Sample Buffer (#NP0007), NuPAGE 10× Reducing Agent (#NP0004) and water, mixed well and heated at 96° C. for 15 minutes to denature the protein. The samples were then loaded into 4-12% Bis-Tris gels (Novex (Invitrogen), #0323) with a protein ladder (Novex (Invitrogen) Sharp Pre-stained protein ladder, #57318) and run at 100-120V for about 2 hours with NuPAGE 20×SDS MES Running Buffer (#NP0002) diluted with water. Next, the gel was taken out and loaded into a NuPAGE transfer cassette with a polyvinylidene membrane with NuPAGE 20× Transfer Buffer (#NP0006-1) diluted with water and methanol. Proteins were transferred for 1 hour at 30V at room temperature. Blocking was performed using the Millipore SNAP i.d. Protein Detection system in 0.25% non-fat dry milk in 0.1% Tween in PBS (PBST). […] Protein signals were detected using ECL Western Blotting Substrate (Pierce, #32106) and filmed.
BMI1 levels in GBM spheres were then analyzed by Western Blotting over a time-course of 120 hours upon treatment with compound 14 at 7-10 nM conc. […]

phospho-RB = assay: Western blotting of phospho-RB levels in GBM spheres; assay type: cell-based, human; settings: for phospho-RB (pRB) levels: GBM spheres, 72 hours, Western blotting
Description: Cells were lysed in Cell Lysis Buffer (Cell Signaling, #9803) supplemented with Protease Inhibitor Cocktail (Sigma, #P8340), sonicated briefly while on ice and spun down for 30 minutes at 4° C., after which the supernatant was collected. For each sample, 2 uL of lysate was mixed well into 198 uL de-ionized water. Next, 10 uL of this diluted sample was added to a well in a 96 well plate in quadruplets and mixed with Protein Assay Dye Reagent Concentrate (Bio-Rad, #500-0006) (which was diluted 1:5 with water). BSA standards of 25 ng, 50 ng, 100 ng, 200 ng and 250 ng were also used to the plate and mixed with the reagent. The plate was read in a plate reader at 600 nm and samples were calibrated to the standards to determine the concentration of protein. Using the NuPAGE system (Invitrogen), 25 ug of protein was mixed with NuPAGE LDS 4× Sample Buffer (#NP0007), NuPAGE 10× Reducing Agent (#NP0004) and water, mixed well and heated at 96° C. for 15 minutes to denature the protein. The samples were then loaded into 4-12% Bis-Tris gels (Novex (Invitrogen), #0323) with a protein ladder (Novex (Invitrogen) Sharp Pre-stained protein ladder, #57318) and run at 100-120V for about 2 hours with NuPAGE 20×SDS MES Running Buffer (#NP0002) diluted with water. Next, the gel was taken out and loaded into a NuPAGE transfer cassette with a polyvinylidene membrane with NuPAGE 20× Transfer Buffer (#NP0006-1) diluted with water and methanol. Proteins were transferred for 1 hour at 30V at room temperature. Blocking was performed using the Millipore SNAP i.d. Protein Detection system in 0.25% non-fat dry milk in 0.1% Tween in PBS (PBST). Primary antibodies against BMI1 (Cell Signaling, #6964), mouse monoclonal antiphospho-RB, anti-CDK4, anti-STAT1, anti-PD-L1 (1:1,000) (Millipore), and housekeeping control rabbit polyclonal anti-vinculin (1:1000) (Cell Signaling) were incubated overnight with gentle rocking at 4° C. in the blocking solution. The following day, membranes were washed 3 times with PBST in the SNAP i.d. system before being incubated with secondary antibody in blocking buffer for 1 hour at room temperature. Three washes were then performed in the SNAP i.d. system. Protein signals were detected using ECL Western Blotting Substrate (Pierce, #32106) and filmed.
GBM CSCs are known to be quiescent and therefore resistant to standard chemo/radiotherapy. The retinoblastoma (Rb) tumor suppressor protein regulates cell proliferation by controlling progression through the restriction point within the G1-phase of the cell cycle. Cell cycle-dependent phosphorylation for Ser780 by cyclin D1-CDK4/6 inhibits Rb target binding and allows cell cycle progression.

Row | SMILES | BMI1 protein levels, time-course (BMI1; 7-10 nM, single treatment, time-course of 120 hours) | BMI1 levels (BMI1) | phospho-RB levels, time-course (phospho-RB; 7-10 nM, time-course of 120 hours) | phospho-RB (pRB) levels (phospho-RB)
1 | COc1c(F)cc(Nc2nc(-c3c(C)nc4ccccn34)cs2)cc1F [Compound 14, hydrochloride] | reduction in BMI1 protein levels at 72, 96 and 120 hours | Lowered BMI1 levels | downregulation of phospho-RB levels | lowered pRB
2 | [2H]C([2H])([2H])Oc1ccc(Nc2nc(-c3c(C)nc4ccccn34)cs2)cc1 [Compound 15, N-(4-(methoxy-d3)phenyl)-4-(2-methylimidazo[1,2-c]pyridin-3-yl)thiazol-2-amine hydrochloride] | – | slightly lowered BMI1 levels | – | lowered pRB
3 | [2H]C1([2H])Oc2ccc(Nc3nc(-c4c(C)nc5ccccn45)cs3)cc2O1 [Compound 17, N-(benzo[d][1,3]dioxol-5-yl-2,2-d2)-4-(2-methylimidazo[1,2-c]pyridin-3-yl)thiazol-2-amine hydrochloride] | – | Lowered BMI1 levels | – | lowered pRB

From patent US12215106B2, “Pharmaceutical compounds and therapeutic methods” (RUTGERS, THE STATE UNIVERSITY OF NEW JERSEY, priority 2018, dated 2025)
